Assay results reported in US11292788B2, “IL-17 and IFN-gamma inhibition for the treatment of autoimmune diseases and chronic inflammation” (Immunic AG, priority 2017, dated 2022).
Converted amounts (≈) assume the structure as drawn. Read-outs that look alike come from different tables or passages of the source.

Columns and labels:
IL-17F = experiment: Cytokine assay: IL-17F production by human PBMC stimulated with PHA; format: cell-based; conditions: IC50 class, read-out: IL-17F Inhib.
Outline: (§1)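 Human donor PBMC (1×10^5 cells/well) were activated with 2 μg/ml PHA and exposed to compounds for 48 h. Supernatant IL-17A, IL-17F and IFN-γ were measured by Luminex or ELISA. Screening used 10, 1, 0.1 and 0.01 μM; IC50 values came from semilogarithmic titrations.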

[1] = Aqueous solubility in 50 mM phosphate buffer (HPLC/DAD); format: physicochemical; conditions: 50 mM phosphate buffer, 23 °C, pH 7.4, aqueous buffer, kinetic from dmso stock, aqueous solubility class; read-out: aq. solub.
Method: To achieve this, the samples (final volume 500 μl, 200 μM compound concentration) were incubated for 24 hours at 23° C. under continuous shaking at 1400 rpm (Thermomixer, Eppendorf) in aqueous phosphate buffers (pH 4.0, 6.0, 7.4 and 9.0) with a final DMSO concentration of 1%. To separate the undissolved compound from the solution, the samples were centrifuged (30 min 18000 g at 23° C.). Supernatants were measured via HPLC equipped with a UV detector and concentrations were calculated according to signals of a standard curve. The standard curve was prepared by diluting a stock solution of each compound (c=0.1 mg/ml; received by adding 10 μl of 20 mM compound in DMSO to 914 μl MeCN) in a certain amount of MeCN to cover a range of 0.1 to 200 μg/ml.

IL-17A = experiment: Cytokine assay: IL-17A production by human PBMC stimulated with PHA; format: cell-based; conditions: IC50 class, read-out: IL-17A Inhib.
Outline: as §1

INF-γ = experiment: Cytokine assay: INF-γ production by human PBMC stimulated with PHA; format: cell-based; conditions: Homo sapiens, PBMC, IC50 class, read-out: IFN-gamma Inhib.
Outline: as §1

[2] = Microsomal stability: incubation with human liver microsomes, residual parent compound by HPLC-MS/MS; format: in vitro ADME; conditions: up to 60 min, read-out: t1/2 hLM
Method: Metabolic stability of compounds of the present invention was determined by incubation with human liver microsomes and subsequent determination of residual amount of the respective compound (“parent compound”) by HPLC-MS/MS.
In order to achieve this, in a final reaction volume of 1000 μl, each compound was incubated at a final concentration of 1 μM with 0.5 mg/ml human liver microsomes (HLM Pool 50 Donors, 20 mg/ml, BD Gentest, #452156, LotNr 88114) in 0.1 M Potassium phosphate buffer at pH 7.4, with a cofactor in form of a NADPH regenerating system (Promega, #V9510) according to the manufacturers' specifications. The final DMSO concentration in each sample was 0.4%. The incubation was performed at 37° C. under shaking conditions (Thermomixer, 1400 rpm) for different time intervals up to 60 min. To stop the reaction, for each time point 200 μl of the reaction were taken out and 200 μl ice-cold acetonitrile was added. Then, the samples were centrifuged (4° C., 14000*g for 15 min). The supernatant was analyzed for residual parent compound concentration and scanned for metabolites using HPLC-MS/MS. By using optimized MS methods for each compound, the peak area under curve for the compound specific signal is determined. The change of the peak areas over the assay time of 60 min resemble the remaining parent compound in % of T0. By these points, a balancing line was set. The half-time, as well as the clearance, can then be calculated on the basis of the slope.

[3] = human liver microsomes 0.5 mg/ml, compound 1 μM, pH 7.4, 37° C.
[4] = pH 7.4, human liver microsomes, 1 μM compound, 0.5 mg/ml HLM, 37° C.

Compound	IC50 (IL-17F; Homo sapiens, PBMC) [µM]	solubility at 24 h [1] [µM]	IC50 (IL-17A; Homo sapiens, PBMC) [µM]	IC50 (INF-γ) [µM]	half-life at 1 μM [2, 3] [min]	half-life at 1 μM [2, 4] [min]	IC50 (IL-17F) [µM]	IC50 (IL-17A) [µM]
CCOC(=O)c1c(-c2c(F)cccc2Cl)noc1-c1cnn(CC(O)CC)c1C(F)(F)F (racemic) [Example 14, ethyl 3-(2-chloro-6-fluorophenyl)-5-[1-(2-hydroxybutyl)-5-(trifluoromethyl)-1H-pyrazol-4-yl]-1,2-oxazole-4-carboxylate]	< 0.05	3 to 9.99 (≈ 1.43 to 4.75 µg/mL)	< 0.05	< 0.05	10 to 40	–	–	–
CCOC(=O)c1c(-c2c(F)cccc2Cl)noc1-c1cnn(CC(O)C(F)(F)F)c1C(F)(F)F (racemic) [Example 15, ethyl 3-(2-chloro-6-fluorophenyl)-5-[1-(3,3,3-trifluoro-2-hydroxypropyl)-5-(trifluoromethyl)-1H-pyrazol-4-yl]-1,2-oxazole-4-carboxylate]	< 0.05	3 to 9.99 (≈ 1.55 to 5.15 µg/mL)	< 0.05	< 0.05	2 to 9.99	–	–	–
[2H]C(C)(O)Cn1ncc(-c2onc(-c3c(F)cccc3Cl)c2-c2nccs2)c1C(F)(F)F (racemic) [Example 31, 1-{4-[3-(2-chloro-6-fluorophenyl)-4-(1,3-thiazol-2-yl)-1,2-oxazol-5-yl]-5-(trifluoromethyl)-1H-pyrazol-1-yl}(2-^2H)propan-2-ol]	< 0.05	< 1	< 0.05	< 0.05	40 to 100	–	–	–
[2H]C(C)(O)Cn1ncc(-c2onc(-c3c(F)cccc3Cl)c2C(=O)OCC)c1C(F)(F)F (racemic) [Example 32, ethyl 3-(2-chloro-6-fluorophenyl)-5-{1-[2-hydroxy(2-^2H)propyl]-5-(trifluoromethyl)-1H-pyrazol-4-yl}-1,2-oxazole-4-carboxylate]	< 0.05	> 10	< 0.05	< 0.05	40 to 100	–	–	–
[2H]C(C)(O)Cn1ncc(-c2onc(-c3c(F)cccc3Cl)c2C(=O)OC)c1C(F)(F)F (racemic) [Example 33, methyl 3-(2-chloro-6-fluorophenyl)-5-{1-[2-hydroxy(2-^2H)propyl]-5-(trifluoromethyl)-1H-pyrazol-4-yl}-1,2-oxazole-4-carboxylate]	< 0.05	> 10	< 0.05	< 0.05	> 100	–	–	–
[2H]C(C)(O)Cn1ncc(-c2onc(-c3c(F)cccc3Cl)c2COC)c1C(F)(F)F (racemic) [Example 95, 1-{4-[3-(2-chloro-6-fluorophenyl)-4-(methoxymethyl)-1,2-oxazol-5-yl]-5-(trifluoromethyl)-1H-pyrazol-1-yl}(2-^2H)propan-2-ol]	0.05 to 0.5	> 10	0.05 to 0.5	0.05 to 0.5	–	> 100	–	–
CC(C)(O)Cn1ncc(-c2onc(-c3c(F)cccc3Cl)c2-c2nccs2)c1C(F)(F)F [Example 1, 1-(4-(3-(2-chloro-6-fluorophenyl)-4-(thiazol-2-yl)isoxazol-5-yl)-5-(trifluoromethyl)-1H-pyrazol-1-yl)-2-methylpropan-2-ol]	0.05 to 0.5	> 10	0.05 to 0.5	< 0.05	> 100	–	–	–
OC1(Cn2ncc(-c3onc(-c4c(F)cccc4Cl)c3-c3nccs3)c2C(F)(F)F)CC1 [Example 2, 1-((4-(3-(2-chloro-6-fluorophenyl)-4-(thiazol-2-yl)isoxazol-5-yl)-5-(trifluoromethyl)-1H-pyrazol-1-yl)methyl)cyclopropanol]	0.05 to 0.5	3 to 9.99 (≈ 1.45 to 4.84 µg/mL)	< 0.05	< 0.05	10 to 40	–	–	–
CCOC(=O)c1c(-c2c(F)cccc2Cl)noc1-c1cnn(CC(C)(C)O)c1C(F)(F)F [Example 8, ethyl 3-(2-chloro-6-fluorophenyl)-5-(1-(2-hydroxy-2-methylpropyl)-5-(trifluoromethyl)-1H-pyrazol-4-yl)isoxazole-4-carboxylate]	0.05 to 0.5	3 to 9.99 (≈ 1.43 to 4.75 µg/mL)	< 0.05	< 0.05	> 100	–	–	–
C[C@]1(O)C[C@H](n2ncc(-c3onc(-c4c(F)cccc4Cl)c3C(=O)OC3CC3)c2C(F)(F)F)C1 [Example 51, cyclopropyl 3-(2-chloro-6-fluorophenyl)-5-{1-[3-hydroxy-3-methylcyclobutyl]-5-(trifluoromethyl)-1H-pyrazol-4-yl}-1,2-oxazole-4-carboxylate]	–	3 to 9.99 (≈ 1.5 to 4.99 µg/mL)	–	–	40 to 100	–	< 0.05	0.05 to 0.5
COCc1c(-c2c(F)cccc2Cl)noc1-c1cnn(CC(C)(C)O)c1C(F)(F)F [Example 65, 1-(4-(3-(2-chloro-6-fluorophenyl)-4-(methoxymethyl)isoxazol-5-yl)-5-(trifluoromethyl)-1H-pyrazol-1-yl)-2-methylpropan-2-ol]	0.5 to 5	> 10	0.5 to 5	0.5 to 5	–	–	–	–
COCc1c(-c2c(F)cccc2Cl)noc1-c1cnn(C[C@@H](C)O)c1C(F)(F)F [Example 66, (2R)-1-(4-(3-(2-chloro-6-fluorophenyl)-4-(methoxymethyl)isoxazol-5-yl)-5-(trifluoromethyl)-1H-pyrazol-1-yl)propan-2-ol]	0.05 to 0.5	> 10	0.05 to 0.5	< 0.05	–	–	–	–
CCN(CC)CCOc1cccc(-c2noc(-c3cnn(CCC(C)(C)O)c3C)c2-c2ncccn2)c1Cl [Example 144, 4-[4-(3-{2-chloro-3-[2-(diethylamino)ethoxy]phenyl}-4-(pyrimidin-2-yl)-1,2-oxazol-5-yl)-5-methyl-1H-pyrazol-1-yl]-2-methylbutan-2-ol]	0.5 to 5	> 10	0.5 to 5	0.05 to 0.5	–	–	–	–
COCc1c(-c2cccc(OCCN3CCOCC3)c2Cl)noc1-c1cnn([C@H]2C[C@@](C)(O)C2)c1C(F)(F)F [Example 150, 3-[4-(3-{2-chloro-3-[2-(morpholin-4-yl)ethoxy]phenyl}-4-(methoxymethyl)-1,2-oxazol-5-yl)-5-(trifluoromethyl)-1H-pyrazol-1-yl]-1-methylcyclobutan-1-ol]	< 0.05	–	< 0.05	< 0.05	–	2 to 9.99	–	–
COCc1c(-c2cccc(OCCN(C)C)c2Cl)noc1-c1cnn([C@H]2C[C@@](C)(O)C2)c1C(F)(F)F [Example 151, 3-[4-(3-{2-chloro-3-[2-(dimethylamino)ethoxy]phenyl}-4-(methoxymethyl)-1,2-oxazol-5-yl)-5-(trifluoromethyl)-1H-pyrazol-1-yl]-1-methylcyclobutan-1-ol]	0.05 to 0.5	–	0.05 to 0.5	0.05 to 0.5	–	> 100	–	–
COCc1c(-c2cccc(OCCN3CCOCC3)c2Cl)noc1-c1cnn([C@H]2C[C@](C)(O)C2)c1C(F)(F)F [Example 152, 3-[4-(3-{2-chloro-3-[2-(morpholin-4-yl)ethoxy]phenyl}-4-(methoxymethyl)-1,2-oxazol-5-yl)-5-(trifluoromethyl)-1H-pyrazol-1-yl]-1-methylcyclobutan-1-ol]	0.05 to 0.5	–	0.05 to 0.5	0.05 to 0.5	–	2 to 9.99	–	–
COCc1c(-c2cccc(OCCN(C)C)c2Cl)noc1-c1cnn([C@H]2C[C@](C)(O)C2)c1C(F)(F)F [Example 153, 3-[4-(3-{2-chloro-3-[2-(dimethylamino)ethoxy]phenyl}-4-(methoxymethyl)-1,2-oxazol-5-yl)-5-(trifluoromethyl)-1H-pyrazol-1-yl]-1-methylcyclobutan-1-ol]	0.5 to 5	–	≥ 5	0.5 to 5	–	> 100	–	–
